Measured values taken from patent publication US20220133753A1, “COMPOSITIONS AND METHODS USEFUL FOR TREATING DISEASES CHARACTERIZED BY INSUFFICIENT PANTOTHENATE KINASE ACTIVITY” (Comet Therapeutics, Inc., priority 2016, published 2022).

Columns and labels:
[1] = test system: C. elegans pantothenate kinase (pnk-1) mutants; assay: C. elegans pnk-1 mutant motility and lifespan with CoA in the food; format: in vivo, Caenorhabditis elegans; details: CoA added to the food
Description: C. elegans Media and Strains: Standard culturing conditions were used for C. elegans maintenance at 20° C. N2 strain was used as a wild-type control. VC927, the PANK deletion mutant pnk-1 (ok1435)I/hT2[bli-4(e937) let-? (q782)qIs48](I; III), was obtained from the Caenorhabditis Genetics Center. To obtain synchronous cultures, worms were bleached with hypochlorite, and allowed to hatch in M9 buffer (3 g KH2PO4, 6 g Na2HPO4, 5 g NaCl, 1 ml 1 M MgSO4, H2O to 1 liter) overnight and cultured on standard Nematode Growth Medium (NGM) plates seeded with OP50 strain of Escherichia coli.
C. elegans Motility Assay: After synchronization, L1 C. elegans were grown on control NMG plates or NGM plates containing various concentrations of CoA. One-day old adults were placed in a drop of M9 buffer and allowed to recover for 30 sec. During the following 30 sec, the number of body bends was counted. A movement was scored as a bend when both the anterior and posterior ends of the animal turned to the same side. At least 15 worms were scored per condition and each experiment was repeated thrice.

[2] = test system: Drosophila w1118 control fly line; assay: Drosophila HoPan toxicity and CoA rescue experiment (eclosion); format: in vivo; details: CoA added to the food of the larvae
Text: Drosophila HoPan Toxicity and CoA Rescue Experiment: One week old w1118 flies (in the ratio 10 females and 5 males) were kept in vials containing standard fly food with or without HoPan and CoA at indicated concentrations. The flies were allowed to lay eggs for 2 days, after which the adults were discarded. The resulting offspring were allowed to develop. The numbers of flies which eclosed were counted to evaluate HoPan toxicity and CoA rescue efficiency.

[3] = Parallel Artificial Membrane Permeability Assay (PAMPA); format: in vitro ADME; details: 5 h incubation, room temperature, phosphate-buffered saline
Description: FIG. 13E is a depiction of a Parallel Artificial Membrane Permeability Assay (PAMPA). Experiments were performed according to the manufacturer's instructions. In this assay, a two-well system is separated by an artificial lipid-oil-lipid membrane (shown in grey). To the lower (donor) compartment, a compound dissolved in buffer is added, the upper (acceptor) compartment contains only buffer. After 5 hours of incubation, concentration of compound is measured in both wells to assess its propensity to diffuse over the artificial membrane. The permeability was calculated according to the manufacturer's instruction (formulas are depicted to the right). Compounds that are below the assay threshold are predicted to be unable to pass membranes passively, whereas compounds above the threshold are able to pass membranes passively. Ceq=Equilibrium Concentration, CD=Concentration in donor well, VD=Volume of donor well (0.3 ml), CA=Concentration in acceptor well, VA=Volume of acceptor well (0.2 ml), P=Permeability, S=Membrane area (0.3 cm2), t=Incubation time (18000 s).
PAMPA assay procedure: Parallel Artificial Membrane Permeability Assay (PAMPA) was performed and processed according to manufacturer's instructions (BD Gentest Pre-coated PAMPA plates). Briefly, two superimposed wells are separated by an artificial lipid-oil-lipid membrane. The compound of interest (PPanSH, CoA, caffeine, amiloride) was added to the bottom well in phosphate-buffered saline, whereas the top well was filled with phosphate-buffered saline alone. After 5 h of incubation at room temperature, concentrations of the different compounds were measured using UV-VIS absorption spectroscopy (BMG Labtech SPECTROstar Omega) along with calibration curves for all compounds. The permeability efficiency was further calculated according to manufacturer's instructions. For caffeine and amiloride, four replicates were performed; for PPanSH and CoA twelve replicates were performed. Caffeine and amiloride were obtained from Sigma.

[4] = test system: homozygous dPANK/fbl1 and dPANK/fblnull mutants; assay: Drosophila dPANK/fbl mutants, lifespan and development with CoA or Vitamin B5 in the food; format: in vivo, Drosophila melanogaster; details: CoA added to the food
Description: Drosophila Maintenance and Crosses: Drosophila melanogaster stocks/crosses were raised on standard cornmeal agar fly food (containing water, agar 17 g/L, sugar 54 g/L, yeast extract 26 g/L and nipagin 1.3 g/L) at 25° C. The stocks were either obtained from the Bloomington Stock Centre (Indiana University, USA), VDRC (Vienna Drosophila RNAi Collection, Vienna, Austria) or from the Exelixis Collection (Harvard Medical School) and rebalanced to generate eGFP-positive balancers. The stocks used were: w1118; dPANK/fbl1 hypomorph5,6; dPANK/fblnull (y[1] w[*]; Mi{y[+mDint2]=MIC}fbl[MI04001]/TM3, Sb[1] Ser[1], Bloomington 36941); dPPCDC mutant (w[1118], PBac{w[+mC]=WH}Ppcdc[f00839]/CyO, Bloomington 18377); UAS-dPPCDCRNAi line (VDRC 104495); dCOASY mutant (PBac{RB}Ppat-Dpck[e00492], Exelixis). The UAS-RNAi constructs were expressed ubiquitously using the Actin-Gal4 drivers (y[1] w[*]; P{w[+mC]=Act5C-GAL4}25FO1/CyO, y[+], Bloomington 4414). […]
Drosophila Life Span: One-day old adults of Drosophila homozygous mutants or RNAi-constructs expressing lines, were collected with appropriate controls and were kept on standard fly food at 25° C. with or without CoA or Vitamin B5 (Sigma) at necessary concentration (50 ul added on top of the fly food and dried). The flies were counted every 12-24 hrs and flipped to new fly food vials with or without CoA or Vitamin B5.

## CC(C)(COP(=O)(O)OP(=O)(O)OC[C@H]1O[C@@H](n2cnc3c(N)ncnc32)[C@H](O)[C@@H]1OP(=O)(O)O)[C@@H](O)C(=O)NCCC(=O)NCCS [CoA, Coenzyme A]
[1]
  lifespan of pnk-1 mutants: improved these phenotypes significantly
  motility of pnk-1 mutants: improved these phenotypes significantly
[2]
  rescue of HoPan-induced phenotype (larval lethality, eclosion rate): fully rescued
[3]
  membrane permeation (PAMPA): poorly permeating molecule and not
[4]; homozygous dPANK/fbl1 mutants, from 20 days without
  lifespan with CoA: 40 days
[4]; homozygous dPANK/fblnull mutants
  development with CoA: extended development from the L2 stage to early pupal development
